PMC6945062, “Aβ43‐producing PS1 FAD mutants cause altered substrate interactions and respond to γ‐secretase modulation” (EMBO Reports, 2019)
Values after ≈ are worked out from the molar mass of the structure shown.

Legend:
[1] = system: PS1 WT or FAD mutant γ‐secretase; assay: ELISA of Aβ species in conditioned media of HEK293/sw cells overexpressing WT or mutant PS1; assay type: cell-based, human
Experimental: For GSM treatments, the cells were grown to a confluence of 70–80%. Thereafter, medium was changed to fresh medium containing either DMSO vehicle control or GSM at the indicated concentration and the cells were incubated for 16–18 h before Aβ analysis of conditioned medium. […] Mouse N2a cells stably overexpressing swAPP were cultured in DMEM (high glucose) supplemented with 10% FCS and 1 mM sodium pyruvate and treated with GSM as described above.
(§1) Immunoblot analysis of PS1 and PS2, NCT, full‐length APP, C‐terminal APP fragments, secreted APPs, and Aβ was performed as described 52. To analyze GSM dose responses and determine IC50 values for Aβ42 inhibition, secreted Aβ species of HEK293/sw cells were analyzed by sandwich immunoassay (MSD) using SULFO‐tagged C‐terminal specific antibodies to Aβ38, Aβ40, and Aβ42 as described before 26 or, in case of H4/sw and N2a/sw cells by an Aβ42 AlphaLISA immunoassay kit according to the instructions of the supplier (PerkinElmer). Notch1 cleavage reporter assay was carried out as described 51. GSM‐mediated changes of secreted Aβ species in conditioned medium of PS1 WT or mutant expressing HEK293/sw cells were quantified by ELISA using end‐specific C‐terminal antibodies to Aβ38, Aβ40, Aβ42, and Aβ43 obtained from IBL as described previously 16. Mass spectrometry analysis of secreted Aβ species was performed after immunoprecipitation using antibody 4G8 as described previously 17. Individual Aβ species were analyzed by immunoblotting, using Tris–Bicine urea SDS–PAGE 53. To improve the separation of longer Aβ species (e.g., Aβ42/43), the separation gel was adjusted to 8% acrylamide and 8 M urea. Aβ37 and Aβ38 generated in cell‐free γ‐secretase assays were analyzed by sandwich immunoassay (MSD) as above using SULFO‐tagged species‐specific antibodies. AICD generation in these assays was analyzed by immunoblotting with Penta‐His antibody after sample separation on 10–20% Tris–Tricine gels (Invitrogen). Protein bands from immunoblots were quantified using the LAS‐4000 image reader (Fujifilm Life Science) and Multi‐Gauge V3.0 software for analysis.

[2] = Mouse microsomal clearance; assay type: in vitro ADME; conditions: mouse microsomes, read-out: CLmicr mouse microsomal clearance
Text: (§2) ^aLogD= logarithm of the octanol-water distribution coefficient at pH 7.4; ^bPAMPA: Parallel artificial membrane parallel assay; ^cCLmicr (h/m): human/mouse microsomal clearance

[3] = PAMPA permeability; assay type: in vitro ADME
Text: as §2

[4] = Human microsomal clearance; assay type: in vitro ADME; conditions: human microsomes, read-out: CLmicr human microsomal clearance
Text: as §2

[5] = system: CHAPSO‐solubilized γ‐secretase; assay: Cell‐free γ‐secretase assay with recombinant C100‐His6 (AICD generation); assay type: biochemical, human; conditions: 2.5 μM, WT and mutant PS1
Experimental: as §1, with “Mass spectrometry analysis of secreted Aβ species was performed after immunoprecipitation using antibody 4G8 as described previously 17.” left out, “To improve the separation of longer Aβ species (e.g., Aβ42/43), the separation gel was adjusted to 8% acrylamide and 8 M urea.” left out, “analysis. […]” for “analysis.”

[6] = LogD (octanol-water distribution coefficient); assay type: physicochemical; conditions: pH 7.4
Text: as §2

[7] = system: C99–PS1 interaction (CHAPSO‐solubilized γ‐secretase); assay: C99 V44Bpa photocrosslinking to PS1 in CHAPSO lysates; assay type: binding, human
Experimental: Bpa‐containing C99‐based γ‐secretase substrates were prepared as described previously 22. CHAPSO‐lysates were prepared from HEK293/sw cells co‐expressing either PS1 WT or PS1 mutants. Photocrosslinking was performed as described before 22. Crosslinking of the substrates was analyzed by immunoblotting using antibodies against the PS1 NTF as described 22. For substrate crosslinking experiments in the presence of RO7019009, the cell lysates were pre‐incubated for 30 min on ice with RO7019009 or DMSO vehicle before the addition of C99 V44Bpa and subsequent photocrosslinking.

[8] = system: γ‐secretase (total Aβ secretion in HEK293/sw cells); assay: Immunoblot analysis of total Aβ in conditioned media of HEK293/sw cells; assay type: cell-based, human
Experimental: (§3) Single‐cell clones of HEK293 cells stably co‐expressing swAPP with WT and mutant PS1 constructs were cultured as described 50. For GSM treatments, the cells were grown to a confluence of 70–80%. Thereafter, medium was changed to fresh medium containing either DMSO vehicle control or GSM at the indicated concentration and the cells were incubated for 16–18 h before Aβ analysis of conditioned medium. Single‐cell clones of H4 overexpressing swAPP and HEK293‐based Notch1 reporter cell lines were cultured and treated with GSM as described 51. […]
(§4) Immunoblot analysis of PS1 and PS2, NCT, full‐length APP, C‐terminal APP fragments, secreted APPs, and Aβ was performed as described 52. To analyze GSM dose responses and determine IC50 values for Aβ42 inhibition, secreted Aβ species of HEK293/sw cells were analyzed by sandwich immunoassay (MSD) using SULFO‐tagged C‐terminal specific antibodies to Aβ38, Aβ40, and Aβ42 as described before 26 or, in case of H4/sw and N2a/sw cells by an Aβ42 AlphaLISA immunoassay kit according to the instructions of the supplier (PerkinElmer). […] GSM‐mediated changes of secreted Aβ species in conditioned medium of PS1 WT or mutant expressing HEK293/sw cells were quantified by ELISA using end‐specific C‐terminal antibodies to Aβ38, Aβ40, Aβ42, and Aβ43 obtained from IBL as described previously 16. […]

[9] = system: Notch1 cleavage; assay: HEK293 cell‐based Notch1 luciferase reporter assay; conditions: Homo sapiens; HEK293‐based Notch1 luciferase reporter cell line; n = 2
Experimental: as §3, §4

[10] = Solubility; assay type: physicochemical
Text: Supplement EMBR-21-e47996-s003.docx, table 1: Table EV1. RO7019009 key physicochemical and pharmacokinetic properties predicting CNS drug-likeness | column: Solubility (µg/ml)

[11] = system: PS1 WT or FAD mutant γ‐secretase; assay: Mass spectrometry analysis of Aβ species from HEK293/sw cells overexpressing WT or mutant PS1; assay type: cell-based, human; conditions: all mutants, 500 nM
Experimental: as §3, §4

[12] = target: C99 V44Bpa; assay: photocrosslinking of C99 V44Bpa to PS1 NTF, immunoblot quantitation; conditions: box plot median, n = 7–11 biological replicates, read off a plot
[13] = target: C99 V44Bpa; assay: photocrosslinking of C99 V44Bpa to full-length PS1, immunoblot quantitation; conditions: box plot median, n = 7–11 biological replicates, read off a plot
[14] = PS1 L166P mutant, HEK293/sw cells
[15] = PS1 R278I and L166P mutants, HEK293/sw cells
[16] = PS1 R278I mutant, HEK293/sw cells
[17] = RO7019009 50 nM, parent: est. 1.0
[18] = RO7019009 500 nM, parent: est. 0.90
[19] = RO7019009 2500 nM, parent: est. 0.49

Compound: CC(C)CC[C@H](c1ccc(Cl)cc1)N1CC[C@@H](CC(=O)O)C[C@H]1c1ccc(C(F)(F)F)cc1 [GSM‐1]
- Aβ43 production [1, 14]: only poorly, if at all
- Aβ42 levels [1, 15]: remained unaffected
- Aβ43 production [1, 16]: weakly reduced

Compound: Cc1nsc(N2C[C@H]3CC[C@@H](C2)[C@@H]3Nc2nc3c(-c4ccc(F)c(F)c4F)cccn3n2)n1 [RO7019009]
- Aβ42 levels ([1]; PS1 L166P mutant, 50 to 500 nM): remained largely unaffected
- Aβ42‐lowering response ([1]; PS1 V261F and R278I mutants, 50 to 500 nM): partially resistant
- Aβ42 levels ([1]; V261F, R278I and L166P mutants, 500 nM): small, yet significant, reproducible reduction
- generation of Aβ43 ([1]; all PS1 mutants, 50 to 500 nM): reduced the generation of Aβ43 for all mutants
- microsomal CLint [2]: < 10 µL/min/mg
- PAMPA (permeability) [3]: High
- microsomal CLint [4]: < 10 µL/min/mg
- total AICD generation [5]: not or only marginally reduced
- logD [6]: 4
- crosslinking of C99 V44Bpa to PS1 ([7]; PS1 Y256S and R278I mutants): unchanged crosslinking
- crosslinking of C99 V44Bpa to PS1 NTF ([7]; WT PS1, increasing concentrations): reduced
- total Aβ levels [8]: did not reduce
- IC50 [9]: > 10 µM
- solubility [10]: 3 µg/mL (≈ 6.36 µM)
- Aβ40 levels [11]: nearly complete reduction

Compound: COc1cc(Nc2cc(Cc3ccc(Cl)cc3)cc(C(C)(C)O)c2)ccc1-n1cnc(C)c1 [RO‐02]
- Aβ43 production [1, 14]: only poorly, if at all
- Aβ42 levels [1, 15]: remained unaffected
- Aβ43 production [1, 16]: weakly reduced

Compound: presenilin 1 (PS1) WT (from UniProt P49768) G382A
- other: V44 CL efficiency (Rel. to DMSO-treated), median [12, 17]: 0.93
- other: V44 CL efficiency (Rel. to DMSO-treated), median [12, 18]: 0.87
- other: V44 CL efficiency (Rel. to DMSO-treated), median [12, 19]: 0.67

Compound: presenilin 1 (PS1) WT (from UniProt P49768) L166P
- other: V44 CL efficiency (Rel. to DMSO-treated), median [12, 17]: 1
- other: V44 CL efficiency (Rel. to DMSO-treated), median [12, 18]: 0.93
- other: V44 CL efficiency (Rel. to DMSO-treated), median [12, 19]: 0.73

Compound: presenilin 1 (PS1) WT (from UniProt P49768) L435F
- other: V44 CL efficiency (Rel. to DMSO-treated), median ([13]; RO7019009 50 nM): 1
- other: V44 CL efficiency (Rel. to DMSO-treated), median ([13]; RO7019009 500 nM): 0.78
- other: V44 CL efficiency (Rel. to DMSO-treated), median ([13]; RO7019009 2500 nM): 0.6

Compound: presenilin 1 (PS1) WT (from UniProt P49768) M292D
- other: V44 CL efficiency (Rel. to DMSO-treated), median ([13]; RO7019009 50 nM): 1.1
- other: V44 CL efficiency (Rel. to DMSO-treated), median ([13]; RO7019009 500 nM): 0.92
- other: V44 CL efficiency (Rel. to DMSO-treated), median ([13]; RO7019009 2500 nM): 0.65

Compound: presenilin 1 (PS1) WT (from UniProt P49768) R278I
- other: V44 CL efficiency (Rel. to DMSO-treated), median ([13]; RO7019009 50 nM): 1
- other: V44 CL efficiency (Rel. to DMSO-treated), median ([13]; RO7019009 500 nM): 1
- other: V44 CL efficiency (Rel. to DMSO-treated), median ([13]; RO7019009 2500 nM): 0.92

Compound: presenilin 1 (PS1) WT (from UniProt P49768) V261F
- other: V44 CL efficiency (Rel. to DMSO-treated), median ([13]; RO7019009 50 nM): 0.95
- other: V44 CL efficiency (Rel. to DMSO-treated), median ([13]; RO7019009 500 nM): 0.65
- other: V44 CL efficiency (Rel. to DMSO-treated), median ([13]; RO7019009 2500 nM): 0.62

Compound: presenilin 1 (PS1) WT (from UniProt P49768) Y256S
- other: V44 CL efficiency (Rel. to DMSO-treated), median [12, 17]: 1.1
- other: V44 CL efficiency (Rel. to DMSO-treated), median [12, 18]: 0.88
- other: V44 CL efficiency (Rel. to DMSO-treated), median [12, 19]: 0.95
